The values that follow come from patent EP4134671A1, “METHYLENE QUINUCLIDINONE COMPANION DIAGNOSTICS” (Deutsches Krebsforschungszentrum Stiftung des öffentlichen …, priority 2021, dated 2023).

The structures appear in SMILES notation.

Data set [1] relates to SK-N-AS. The data set can be described thus: Metabolic activity assay (CellTiter-Glo). Format: cell-based. The method, then: If not otherwise declared, cells were precultured for 72 h at a density of 2,000,000 cells per T75 flask (exceptions: Kelly, NB1 and IMR-32 4,000,000 per T75 flask, SJ-GBM2 1,000,000 per T75 flask). Cells were detached with trypsin-EDTA (ThermoFisher Scientific) and seeded in 96-well plates (Greiner, Microplate, 96-Well, PS, F-bottom µCLEAR®, CELLSTAR®) in 100 µl medium per well at a density of 5,000 (KNS-42, SJ-GBM2, SF188, SK-N-BE(2)-C) or 10,000 (IMR-32, NB1, Kelly) cells/well. […] To avoid edge effects, margin wells (row A and H, column 1 and 12) contained PBS or medium and medium-containing wells were used as background controls. After 24 h incubation, cells were treated for 72 h. Drugs were applied using a Tecan D300e drug printer. Cell viability was quantified using CellTiter-Glo® 2.0 kit (Promega, Madison, USA). 50 µl CellTiter-Glo® (96-well) or 25 µl CellTiter-Glo® (384-well) were added to every well, the plates were shaken at 400 rpm for 5 min and were then incubated for another 10 min. Bioluminescence was quantified on an OPTIMA plate reader (BMG Labtech, Ortenberg, Germany).
All cell culture experiments were performed in triplicate. […] The packages tidyverse, janitor, readxl, writxl, ROCR, ggplot2 and ggsignif were used to calculate and plot the data. P-values of less than 0.05 were considered significant (^∗p < 0.05, ^∗∗p < 0.01, ^∗∗∗p < 0.001). IC50 values were calculated using GraphPad Prism Version 9.1.0 (GraphPad Software). Synergistic interactions were analyzed with SynergyFinder using the HSA (highest single agent) reference model, as the assumptions of other models were not fulfilled.
For orientation: Cellular ATP, detected with luciferase, serves as a proxy for viable cell number.

Data set [2] concerns SK-N-BE(2)-C. The data set can be described thus: Metabolic activity assay (CellTiter-Glo). Format: cell-based. The note with it: for IC50: SK-N-BE(2)-C. The procedure:
(§1) If not otherwise declared, cells were precultured for 72 h at a density of 2,000,000 cells per T75 flask (exceptions: Kelly, NB1 and IMR-32 4,000,000 per T75 flask, SJ-GBM2 1,000,000 per T75 flask). Cells were detached with trypsin-EDTA (ThermoFisher Scientific) and seeded in 96-well plates (Greiner, Microplate, 96-Well, PS, F-bottom µCLEAR®, CELLSTAR®) in 100 µl medium per well at a density of 5,000 (KNS-42, SJ-GBM2, SF188, SK-N-BE(2)-C) or 10,000 (IMR-32, NB1, Kelly) cells/well. HDAC-inhibitor screenings were performed accordingly in 384-well plates (Greiner, Microplate, 384-Well, PS, F-bottom µCLEAR®, CELLSTAR®) in 20 µl medium per well at a density of 1,250 (SK-N-BE(2)-C, SK-N-AS) or 2,500 (IMR-32) cells/well. To avoid edge effects, margin wells (row A and H, column 1 and 12) contained PBS or medium and medium-containing wells were used as background controls. After 24 h incubation, cells were treated for 72 h. Drugs were applied using a Tecan D300e drug printer. Cell viability was quantified using CellTiter-Glo® 2.0 kit (Promega, Madison, USA). 50 µl CellTiter-Glo® (96-well) or 25 µl CellTiter-Glo® (384-well) were added to every well, the plates were shaken at 400 rpm for 5 min and were then incubated for another 10 min. Bioluminescence was quantified on an OPTIMA plate reader (BMG Labtech, Ortenberg, Germany).
(§2) All cell culture experiments were performed in triplicate. A two-tailed t-test, unpaired or paired, or ANOVA where appropriate, were performed using software program R (R version 3.2.2, 2015; The R Foundation for Statistical Computing). The packages tidyverse, janitor, readxl, writxl, ROCR, ggplot2 and ggsignif were used to calculate and plot the data. P-values of less than 0.05 were considered significant (^∗p < 0.05, ^∗∗p < 0.01, ^∗∗∗p < 0.001). IC50 values were calculated using GraphPad Prism Version 9.1.0 (GraphPad Software). Synergistic interactions were analyzed with SynergyFinder using the HSA (highest single agent) reference model, as the assumptions of other models were not fulfilled.

The subject of data set [3] is IMR-32. Kind of data set: Metabolic activity assay (CellTiter-Glo). Format: cell-based. The settings on record: for IC50: IMR-32. The method, then: as §1, §2
The test system of data set [4] is SF188. The data set can be described thus: Metabolic activity assay (CellTiter-Glo). Format: cell-based. The settings on record: doxorubicin combined with APR-246. The procedure: as §1, §2
The test system of data set [5] is SJ-GBM2. Kind of data set: Metabolic activity assay (CellTiter-Glo). Format: cell-based. The note with it: doxorubicin combined with APR-246. The method, then:
as §1, §2

Data set [6] deals with p53 target gene expression. Kind of data set: Real-time PCR of p53 pathway activation in SK-N-BE(2)-C. The settings on record: SK-N-BE(2)-C (C135F), doxorubicin single treatment, 24 h. Format: cell-based. The method, then: (§3) Real-time PCR was performed as described previously (Fischer et al., J Mol Diagn 2005, 7, 89-96; Witt et al., Blood 2003, 101, 2001-2007). The following primers were purchased from ThermoFisher Scientific: CDKN1A (p21^WAF1/^CIP1, forward: 5'-TGGAGACTCTCAGGGTCGAAA-3'(SEQ ID NO:1), reverse: 5'-GGCGTTTGGAGTGGTAGAAATC-3'(SEQ ID NO.2)), HPRT (forward: 5'-TGACACTGGCAAAACAATGCA-3'(SEQ ID NO:3), reverse: 5'-GGTCCTTTTCACCAGCAAGCT-3'(SEQ ID NO:4)), SDHA (forward: 5'-TGGGAACAAGAGGGCATCTG-3'(SEQ ID NO:5), reverse: 5'-CCACCACTGCATCAAATTCATG-3'(SEQ ID NO:6)), and PUMA (forward: 5'-CCTGGAGGGTCCTGTACAATCT-3'(SEQ ID NO:7), reverse: 5'-GCACCTAATTGGGCTCCATCT-3'(SEQ ID NO:8)). The primer for GADD45A was purchased from Qiagen, Hilden, Germany (QT00014084). The delta-delta-Ct method was used to calculate the relative expression, and normalization was performed to neuroblastoma specific housekeeping genes SDHA and HPRT (Fischer et al., J Mol Diagn 2005, 7, 89-96).
For orientation: Quantitative PCR measures a nucleic acid by following its amplification.

The subject of data set [7] is p53 target genes CDKN1A, PUMA and GADD45A. The data set can be described thus: Real-time PCR of p53 pathway activation in IMR-32. The settings on record: IMR-32 (TP53-wt), doxorubicin single-treatment, 24 h. Format: cell-based. The procedure: as §3
Data set [8] concerns Zebrafish embryo. The data set can be described thus: Zebrafish embryo drug toxicity assay. Format: in vivo. The note with it: embryos 48 hpf, 34°C, imaged at 72 hpf and 120 hpf; APR-246 range 10-200 µM, Vorinostat range 2.5-100 µM. The procedure:
The toxicity of the compounds was assessed before performing in vivo experiments and a Maximum Tolerated Dose (MTD) was determined. Embryos (48 hpf) were transferred to 48-well uncoated plates (Corning) containing different concentrations of the compounds and a solvent control. The stock solution of the compounds was further dissolved in E3 buffer supplemented with 0.2mM 1-phenyl-2- thiourea (PTU, Sigma) in order to reach the desired concentrations. Three embryos were tested per concentration or solvent control. Embryos were kept at 34°C during the experiment and were imaged at 72 hpf and 120 hpf using a stereo microscope (Leica). The embryos were assessed for signs of toxicity, like death, morphology changes (curvature of body, edema) and behavioral changes. APR-246 concentration range tested: 10-200 µM, MTD: 50µM; solvent control: DMSO (0.2% and 0.5%); Vorinostat concentration range tested: 2.5-100 µM, no toxicity detected (MTD: 100µM); solvent control: DMSO (0.1%).

Where [9] appears, read: Homo sapiens, HDAC inhibitor alone, 72 h, 384-well.
Setting [10] is: HDAC inhibitor alone, 72 h, 384-well.

Broadly, the IC50 is the concentration at which inhibition is half-maximal. Regarding `C/C=C1\NC(=O)[C@H]2CSSCC/C=C/[C@H](CC(=O)N[C@H](C(C)C)C(=O)N2)OC(=O)[C@H](C(C)C)NC1=O` [romidepsin], the half-inhibitory concentration (IC50) worked out at 1.8 nM in data set [1] (HDAC inhibitor + APR-246 20 µM); 5.7 nM in data set [1] (setting [9]); 9.9 nM in data set [2] (HDAC inhibitor + APR-246 10 µM); 26.9 nM in data set [2] (setting [10]); 0.73 nM in data set [3] (setting [9]); 0.24 nM in data set [3] (HDAC inhibitor + APR-246 1 µM).

With `CN(C)Cc1c(C(=O)NCCOc2ccc(C(=O)NO)cc2)oc2ccccc12` [abexinostat, 3-[(Dimethylamino)methyl]-N-{2-[4-(hydroxycarbamoyl)phenoxy]ethyl}-1-benzofuran-2-carboxamide], the IC50 in data set [1] (HDAC inhibitor + APR-246 20 µM) is 15.4 nM; in data set [1] (setting [9]), 46.3 nM; in data set [2] (HDAC inhibitor + APR-246 10 µM), 37.5 nM; in data set [2] (setting [10]), 172 nM; in data set [3] (setting [9]) it was 100 nM; in data set [3] (HDAC inhibitor + APR-246 2 µM), 30.4 nM.

Consider `Cc1[nH]c2ccccc2c1CCNCc1ccc(/C=C/C(=O)NO)cc1` [panobinostat, (2E)-N-hydroxy-3-[4-({[2-(2-methyl-1H-indol-3-yl)ethyl]amino}methyl)phenyl]acrylamide], for which the IC50 in data set [1] (HDAC inhibitor + APR-246 20 µM) came out at 1 nM; in data set [1] (setting [9]), 2.2 nM; in data set [2] (HDAC inhibitor + APR-246 20 µM), 3.1 nM; in data set [2] (setting [10]), 40.2 nM; in data set [3] (setting [9]) it was 35.6 nM; in data set [3] (HDAC inhibitor + APR-246 2 µM), 13.9 nM.

For `COc1cccc2c1C(=O)c1c(O)c3c(c(O)c1C2=O)C[C@@](O)(C(=O)CO)C[C@@H]3O[C@H]1C[C@H](N)[C@H](O)[C@H](C)O1` [doxorubicin], the cell viability entry in data set [4] and in data set [5] was “decreased cell viability” throughout. Also, the “doxorubicin sensitivity (metabolic activity)” value in data set [2] (doxorubicin resistant TP53-mutant SK-B-BE(2)-C, fixed APR-246 concentration with different doses of doxorubicin) is “increased doxorubicin sensitivity”; in data set [3] (IMR-32 (TP53-wt), fixed APR-246 concentration with different doses of doxorubicin), “increased doxorubicin sensitivity”. In data set [6], the “p53 target gene expression” value is “failed to activate p53 target gene expression”. Further, in data set [7], the “p53 target genes CDKN1A, PUMA and GADD45A expression” value is on record as “upregulation”.

Consider `O=C(CCCCCCC(=O)Nc1ccccc1)NO` [vorinostat, N-Hydroxy-N'-phenyloctanediamide], for which, in data set [1] (72 h co-treatment of vorinostat (0-10 µM) with APR-246 (0, 15, 30, 45 µM), SynergyFinder HSA model), the HSA synergy score stood at 12.17. Besides, in data set [8], the “Maximum Tolerated Dose (MTD)” value stood at 100 µM.
